Measured values published in patent US20240263147A1, “CARDIAC ORGANOID AND ANTI-ELECTRO-MITOCHONDRIAL DESYNCHRONIZATION THERAPY” (YISSUM RESEARCH DEVELOPMENT COMPANY OF THE HEBREW …, priority 2021, published 2024).
“Also recorded” adds a separate entry of the source.

Legend:
[1] = system: hiPSC-derived cardiomyocytes; assay: Live imaging of mitochondrial calcium (Rhod-2AM) and visual contraction analysis in 2D culture; type: cell-based, human; settings: n=4
[2] = system: vascularized cardiac organoids; assay: Integrated metabolic-electro-mechanical sensor chip: simultaneous contraction, field potential and interstitial oxygen; type: cell-based, human; settings: for reversal of mitoxantrone-induced arrhythmic behavior: 100 μM metformin concurrent with 10 μM mitoxantrone
[3] = system: porcine cardiac tissue
Text: The tissue was procured post-mortem from a 70 kg domestic female pig that underwent a laparoscopic liver operation (Ethical approval number MD-21-16533-3) and was euthanized using a lethal dose of potassium chloride. […] The lung was retracted, and the pericardium was incised.
The anterior wall of the left ventricle was incised from base to apex and several slices measuring 2-3 mm in length and 1-2 mm thick were obtained using a #10 scalpel blade. Cardiac tissues were further cut into 500±200 μm thick slices and washed thoroughly with 37° C. pre-warmed ex-vivo medium composed of M199 medium, supplemented with 1×insulin-transferrin-selenium (ITS), 10% fetal bovine serum (FBS), and 5 ng/mL vascular endothelial growth factor (VEGF), and 10 mM of 2-[4-(2-hydroxyethyl)piperazin-1-yl]ethanesulfonic acid (HEPES).
The cardiac explants were then embedded with oxygen sensors, placed on the MEAs chip, and transferred to a 37° C. temperature-controlled incubation chamber that contains M199 medium supplemented with 1× ITS, 10% FBS, 5 ng/mL VEGF, and 10 mM HEPES to support long term function, as previously described. The explant was continuously point-stimulated at 2 Hz cycle length. Contraction, field potential, and oxygen were assessed using the integrated metabolic-electro-mechanical sensor chip. […]

[4] = system: vascularized cardiac organoids; assay: Metabolic flux balance analysis and ATP production in cardiac organoids; type: cell-based, human; settings: 10 μM KB-R7943, within 20 minutes of exposure
Method: Amperometric 4-analytes sensors (B.LV5) were purchased from Innovative Sensor Technology (IST, Switzerland). Measurements were carried out and calibrated to sensitivity decrease by an on-chip potentiostat (IST, Switzerland). Oxygen, glucose, lactate, and glutamine fluxes were measured by calculating the change in metabolite concentration over time. Glutamine measurement allowed us to calculate lipid metabolism fluxes. Oxidative phosphorylation flux was calculated by dividing the oxygen uptake rate by six. The inventors estimated 32 ATP molecules generated by the complete oxidation of glucose. Glycolysis flux was calculated by dividing the lactate production rate by two, with the maximal rate defined by glucose uptake rate minus the oxidative phosphorylation flux. ATP production in glycolysis was estimated to be two molecules per molecule of glucose. Glutaminolysis was calculated directly by glutamine uptake. ATP production in glutaminolysis was estimated to be three molecules per molecule of lactate generated.

[5] = system: hiPSC-derived cardiomyocytes; assay: Live imaging of mitochondrial calcium (Rhod-2AM) and visual contraction analysis in 2D culture; type: cell-based, human; settings: for decrease of magnitude of [Ca2+]m oscillations / reduction of contraction magnitude: n=4
Method: (§1) Fast phase-contrast imaging (17 frames per second) was performed at suitable magnification using an LSM-700 Zeiss microscope. The time-lapse micrograph was analyzed using a custom MATLAB® code. Briefly, multiple regions of interest (ROIs) were selected on the cardiac tissue borders, producing a distinct area with changes representative of the cardiac contraction. Dynamic changes in the ROI intensity were measured over time and converted into beating rates using Fast Fourier Transformation (FFT). Contractility was calculated based on the frequency amplitude magnitude.
For mitochondrial calcium live imaging, different hiPSC-derived cardiomyocytes were cultured in RPMI supplemented with B27 minus insulin, and 0.1% DMSO (control) or […] KB-R7943 mesylate (Tocris Bioscieice, USA), Mean mitochondrial calcium was measured using live imaging of Rhod-2AM dye after 0, 30, and 90 seconds of exposure to DMSO (control) or 10 μM MCU inhibitor KB-R7943 mesylate
Mitochondrial calcium uptake within human iPSC-derived cardiomyocytes was measured using Rhod-2AM dye according to the manufacturer's instructions (Abcam, USA). Cells were loaded with […] Rhod-2AM in RPMI supplemented with B27-I for 30 min at 37° C., washed with PBS, and incubated with RPMI supplemented with […] KB-R7943 or 0.1% DMSO, and B27-I. Measurements were taken continuously using an incubated LSM-700 Zeiss microscope at 5% CO2 and 37° C. Rhod-2AM measurement was conducted by excitation at 552 nm at a 10 Hz sampling rate. Mitochondrial calcium uptake was calculated by the change of the mean emission intensity at 581 nm. The time-lapse micrograph was analyzed using multiple regions of interest (ROIs) and was selected based on Mitotracker staining, producing a distinct area with changes representative to mitochondrial networks. Changes in fluorescent intensity were used to determine oscillation rate and amplitude.

[6] = system: vascularized cardiac organoids; assay: Integrated metabolic-electro-mechanical sensor chip: simultaneous contraction, field potential and interstitial oxygen; type: cell-based, human
Method: The MEA design and printed connections enabled access to 45 different electrodes inside the platform intermittently via a compatible sensor circuit (FIGS. 9A-9B). Spontaneous cardiac field potentials (FPs) were recorded from cardiac organoids using an integrated signal conditioning circuit (AD8232®), with a 2-pole adjustable high-pass filter, 3-pole adjustable low-pass filter, adjustable gain, and medical instrumentation amplifiers to extract, amplify, and filter the extracellular field potential of the organoids remotely within the confined well. […] Spontaneous cardiac field potentials were measured at 100 Hz sampling rate in each microwell. Field potential rhythm frequency was calculated in real-time using a custom-made MATLAB® software imposing Fourier Transformation (FFT) on the evolving kinetic data (FIGS. 9C-9D).
Real-time oxygen measurement was performed based on previously described elements. Briefly, phosphorescent ruthenium microprobes (CPOx-50-RuP) show a decrease in phosphorescence decay time as a function of oxygen concentration, allowing to measure the oxygen content. Controlled sinusoidal modulated 532-nm LED signal excites the embedded oxygen sensors and emits a sinusoidal amplitude-modulated light at 605 nm that is shifted in phase due to oxygen quenching. A phase shift is measured between the emission hardware-filtered first detector (PMT), and a second excitation detector (cPMT). […] Measurements were carried out at a 10 Hz sampling rate. Contraction rate and oxygen rhythm frequency were calculated in real-time using a custom-made MATLAB® software imposing Fourier Transformation (FFT) on the evolving kinetic data. Using custom MATLAB code, we calculated the cardiac organoid contraction rates directly from our oxygen reader based on the emission intensity measured in peak-to-peak voltage from the oxygen bead and its displacement using the second PMT system. Cardiac displacement was measured by the embedded oxygen beads inside the cardiac organoids during a contraction. When the beads move at different distances from the focal point, changes in peak-to-peak voltage occurred leading to the detection of the contraction behavior.
For simultaneous real-time oxygen, contraction rate, and field potential measurements, cardiac organoids were cultured in RPMI supplemented with B27 minus insulin, 5 ng/ml VEGF and 0.1% DMSO (control) or 10 μM KB-R7943 mesylate. Real-time oxygen, contraction rate, and field potential were measured after 0, 15, and 25 minutes of exposure to DMSO (control) or 10 μM KB-R7943 mesylate.

[7] = system: hiPSC-derived vascularized cardiac organoids; assay: Beating of vascularized cardiac organoids under pharmaceutical stimulation; type: cell-based, human
Method: hiPS-derived cardiomyocytes and microvascular cardiac endothelial cells (VEC Technologies, USA) were counted and mixed in a 2:1 ratio in growth factor reduced Matrigel (BD Biosciences, San Jose, CA) at a cell density of 6.8×10^4 cells per μl. A volume of 1.1 μl of the gel-imbedded mixture (7.48×10^4 cells) was injected into each microwell and left to form spontaneously in RPMI-1640 supplemented with B27 minus insulin and 5 ng/ml vascular endothelial growth factor (VEGF-A, Peprotech) until their spontaneous beating was regained after 6-10 days.
as §1

## CN(C)C(=N)N=C(N)N [metformin]
[1]; 100 μM metformin added to 10 μM mitoxantrone treatment
  increase in mean mitochondrial calcium content: 3.4 fold
[2]
  reversal of mitoxantrone-induced arrhythmic behavior: reverts the effect, displaying regular heart contraction and field potential; also recorded: reversed this effect
[2]; listed as Metformin
  reversal of mitoxantrone-induced arrhythmic behavior: rescues the arrhythmic cardiac behavior
[2]; metformin (100 μM) combined with mitoxantrone (10 μM), from 82 BPM
  beating rate: 61 BPM
[3]; 100 μM metformin concurrent with 10 μM mitoxantrone
  beating frequency: 1.4 Hz

## N=C(N)SCCc1ccc(OCc2ccc([N+](=O)[O-])cc2)cc1 [KB-R7943]
[2]; 10 μM KB-R7943, within 35 minutes of exposure, n=9
  increase of contraction frequency, oxygen oscillation rate and field potential oscillation frequency (all three rates): 2.5 fold
[4]
  effect on ATP generation (production): decrease in ATP production; also recorded: decrease in ATP generation
[5]; 10 μM KB-R7943
  effect on [Ca2+]m concentration: no significant difference
[5]; 10 μM KB-R7943, 30 seconds
  decrease of magnitude of [Ca2+]m oscillations: 60%
  reduction of contraction magnitude: 45%
[5]; 10 μM KB-R7943, 90 seconds
  decrease of magnitude of [Ca2+]m oscillations: 78%
  reduction of contraction magnitude: 70%
[5]; 10 μM KB-R7943, acute
  effect on cardiomyocyte contractility and [Ca2+]m oscillation amplitude: dramatically decreases cardiomyocyte contractility, and [Ca^2+]m oscillation amplitude; also recorded: decreases the magnitude of cardiomyocyte contraction
[5]; 10 μM KB-R7943, short term exposure
  effect on cardiomyocyte contraction frequency (rate): without affecting contraction rate; also recorded: did not significantly affect
[6]; 10 μM KB-R7943
  effect on coupling of mitochondrial and electro-mechanical activity: caused uncoupling between mitochondrial and electro-mechanical activity, resulting in arrhythmic cardiac behavior
  effect on magnitude of organoid contraction and depolarization: comparable and parallel decrease
  effect on oxygen uptake of the cardiac organoid: progressive decrease in the oxygen uptake
[6]; 10 μM KB-R7943, n=9
  effect on magnitude of oxygen oscillations: significantly and progressively decreased

## NC1=N[C@H](O)[C@H]2[C@H]3O[C@]4(O)O[C@@H]([C@@H](O)[C@@]2(N1)[C@@H]4O)[C@]3(O)CO [Tetrodotoxin]
[6]
  effect on field potential generation, mechanical contraction (and oxygen oscillation): complete loss of field potential generation and associated mechanical contraction; also recorded: eliminated field potential generation, mechanical contraction, and oxygen oscillation
  effect on oxygen oscillation: decayed simultaneously with the field potential

## Cc1ccc2c(c1)C(=O)C1(O)CCN(c3ccccc3)C1=N2 (stereo not drawn) [Blebbistatin]
[2]; 10 μM Blebbistatin
  effect on contraction: inhibits the contraction; also recorded: blocked cardiac contraction
  effect on field potential and interstitial oxygen oscillation frequency and intensity: does not affect the FPs or interstitial oxygen oscillations frequency and intensity; also recorded: did not affect the field potential or the oxygen oscillation frequency and intensity

## CNC[C@H](O)c1ccc(O)c(O)c1 [epinephrine]
[7]
  contraction (beating) rate: 88±7 bpm
[2]
  effect on contractility and contraction rate: increases the contractility and contraction rate
  effect on mean interstitial oxygen concentration: decreasing the mean interstitial oxygen concentration
  increase of contraction: 33%
  organoid contraction frequency: 1.95 Hz

## O=C1c2c(O)ccc(O)c2C(=O)c2c(NCCNCCO)ccc(NCCNCCO)c21 [mitoxantrone]
[1]; 10 μM mitoxantrone alone
  decrease in mitochondrial calcium: 79%
[2]; mitoxantrone exposure (10 μM)
  effect on mechanical contraction, electrical depolarization and oxygen concentration: markedly decreased
[2]; mitoxantrone exposure (10 μM), from 53 BPM
  contraction rate: 79 BPM
[3]; female, pig, 10 μM
  beating frequency (cardiac rhythm): 2 Hz

## CCCCc1oc2ccccc2c1C(=O)c1cc(I)c(OCCN(CC)CC)c(I)c1 [amiodarone]
[7]; 10 μM amiodarone, n=6
  decrease of contraction / contraction amplitude: 28%
[7]; 10 μM amiodarone, spontaneous beating 66±5 bpm, n=6
  contraction rate: 52±4 bpm
